Here are results for 3 molecules from patent US7744897B2, “Human immunodeficiency virus gp41 mimetibody polypeptides” (priority 2003, dated 2010).

For data set [1] the following is noted: cited from earlier work.
For data set [2] the following is noted: human serum, spiked at 1 mg/ml, 72 hours at 37° C., HPLC. How it is done:
The stability of the T-1249 mimetibody in vitro was determined using HPLC. The T-1249 mimetibody (SEQ ID NO: 1) was spiked into human serum at 1 mg/ml. Using a C18 chromatography matrix, a peak corresponding to the T-1249 mimetibody was resolved from other serum proteins. […] Samples were taken at 0, 5, 25, and 72 hours after the addition of the T-1249 mimetibody into human serum. A background peak was used as a reference for each sample.

Data set [3] deals with other isolates of HIV including an enfuvirtide-resistant strain. Particulars: similar experiments.
The next data set has as its system HIV. The following applies: clinical trials; cited from earlier work.

Like-named read-outs stand apart in the source and are kept apart here.

As to `CC[C@H](C)[C@H](NC(=O)[C@H](CCC(N)=O)NC(=O)[C@H](C)NC(=O)[C@H](CCC(N)=O)NC(=O)[C@H](CCC(=O)O)NC(=O)[C@H](CC(C)C)NC(=O)[C@H](CC(C)C)NC(=O)[C@H](C)NC(=O)[C@@H](NC(=O)[C@@H](NC(=O)[C@H](CCCCN)NC(=O)[C@H](CCC(N)=O)NC(=O)[C@H](CCC(=O)O)NC(=O)[C@H](Cc1c[nH]c2ccccc12)NC(=O)[C@H](CCC(=O)O)NC(=O)[C@H](CCC(N)=O)NC(=O)[C@H](Cc1c[nH]c2ccccc12)NC(C)=O)[C@@H](C)CC)[C@@H](C)O)C(=O)N[C@@H](CCC(N)=O)C(=O)N[C@@H](CCC(N)=O)C(=O)N[C@@H](CCC(=O)O)C(=O)N[C@@H](CCCCN)C(=O)N[C@@H](CC(N)=O)C(=O)N[C@@H](CCC(=O)O)C(=O)N[C@@H](Cc1ccc(O)cc1)C(=O)N[C@@H](CCC(=O)O)C(=O)N[C@@H](CC(C)C)C(=O)N[C@@H](CCC(N)=O)C(=O)N[C@@H](CCCCN)C(=O)N[C@@H](CC(C)C)C(=O)N[C@@H](CC(=O)O)C(=O)N[C@@H](CCCCN)C(=O)N[C@@H](Cc1c[nH]c2ccccc12)C(=O)N[C@@H](C)C(=O)N[C@@H](CO)C(=O)N[C@@H](CC(C)C)C(=O)N[C@@H](Cc1c[nH]c2ccccc12)C(=O)N[C@@H](CCC(=O)O)C(=O)N[C@@H](Cc1c[nH]c2ccccc12)C(=O)N[C@@H](Cc1ccccc1)C(N)=O` [T-1249 peptide], in data set [1] (in vivo), the plasma half-life is 9 to 14 h.
In the case of “T-1249 mimetibody: Formula (II) polypeptide: V1 QIQ, single copy of T-1249, IgG J region, IgG1 hinge, CH2 and CH3; SEQ ID NO: 1”, the “T-1249 mimetibody remained intact” value in data set [2] is “more than 93%”. Further, the “Activity against other isolates of HIV including an enfuvirtide-resistant strain” value in data set [3] is reported as “active”.
Turning to enfuvirtide, the plasma half-life entry in data set [1] (human, plasma) is “about 1.8 hours”. For the same molecule, the “Reduction of viral levels in infected patients” value in the data set with HIV is recorded as 1-2 logs.
